Results taken from the supplement of paper PMC10307832.

Assays:
Assay in all cases: relative viability (nuclei count vs DMSO), 5 days (fraction); higher = more cells survive
[1] = test system: HCC-78
Procedure, shortened: (§1)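 Cells from lung cancer lines were seeded into 1536-well plates and, one day later, dosed by pin tool. Treatments were either a single drug or a fixed dose of an anchor drug with five library-drug doses (not always all listed) in √10 steps. After 5 days, nuclei were stained in a one-step fixation (final 0.05% Triton X-100, 1% formaldehyde, 1 ug/ml Hoechst) and counted on 4× images, and relative viability is the treated-to-vehicle nuclei ratio, as the median of duplicate plates.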

[2] = test system: PC-14
Procedure, shortened: as §1

[3] = test system: UMC-11
Procedure, shortened: as §1

[4] = test system: HCC-15
Procedure, shortened: as §1

[5] = test system: NCI-H2023
Procedure, shortened: as §1

[6] = test system: EPLC-272H
Procedure, shortened: as §1

[7] = test system: COR-L23
Procedure, shortened: as §1

[8] = test system: SW 1573
Procedure, shortened: as §1

[9] = test system: LC-2-ad
Procedure, shortened: as §1

[10] = test system: NCI-H1651
Procedure, shortened: as §1

[11] = test system: NCI-H2126
Procedure, shortened: as §1

[12] = test system: ABC-1
Procedure, shortened: as §1

[13] = test system: NCI-H1915
Procedure, shortened: as §1

[14] = test system: NCI-H1993
Procedure, shortened: as §1

[15] = test system: NCI-H358
Procedure, shortened: as §1

[16] = test system: NCI-H2085
Procedure, shortened: as §1

[17] = test system: NCI-H1355
Procedure, shortened: as §1

[18] = test system: NCI-H838
Procedure, shortened: as §1

[19] = test system: NCI-H2347
Procedure, shortened: as §1

[20] = test system: NCI-H650
Procedure, shortened: as §1

[21] = test system: NCI-H2342
Procedure, shortened: as §1

[22] = test system: LU99A
Procedure, shortened: as §1

[23] = test system: HARA
Procedure, shortened: as §1

Compound: CC1(C)CCC(c2ccc(Cl)cc2)=C(CN2CCN(c3ccc(C(=O)NS(=O)(=O)c4ccc(N[C@H](CCN5CCOCC5)CSc5ccccc5)c(S(=O)(=O)C(F)(F)F)c4)cc3)CC2)C1 [Navitoclax] + Cc1cc(Nc2cc(N3CCN(C)CC3)nc(Sc3ccc(NC(=O)C4CC4)cc3)n2)n[nH]1 [Tozasertib] (partner 0.1 µM)
- relative viability ([1]; first compound 0.005 µM): 0.403
- relative viability ([1]; first compound 0.01581 µM): 0.594
- relative viability ([1]; first compound 0.1581 µM): 0.584
- relative viability ([1]; first compound 0.5 µM): 0.428
- relative viability ([2]; first compound 0.005 µM): 0.623
- relative viability ([2]; first compound 0.01581 µM): 0.633
- relative viability ([2]; first compound 0.05 µM): 0.7
- relative viability ([2]; first compound 0.1581 µM): 0.553
- relative viability ([2]; first compound 0.5 µM): 0.559
- relative viability ([3]; first compound 0.005 µM): 0.196
- relative viability ([3]; first compound 0.01581 µM): 0.184
- relative viability ([3]; first compound 0.05 µM): 0.207
- relative viability ([3]; first compound 0.1581 µM): 0.2
- relative viability ([3]; first compound 0.5 µM): 0.188
- relative viability ([4]; first compound 0.005 µM): 0.428
- relative viability ([4]; first compound 0.01581 µM): 0.524
- relative viability ([4]; first compound 0.05 µM): 0.449
- relative viability ([4]; first compound 0.1581 µM): 0.481
- relative viability ([4]; first compound 0.5 µM): 0.467
- relative viability ([5]; first compound 0.005 µM): 0.384
- relative viability ([5]; first compound 0.01581 µM): 0.32
- relative viability ([5]; first compound 0.05 µM): 0.357
- relative viability ([5]; first compound 0.1581 µM): 0.36
- relative viability ([5]; first compound 0.5 µM): 0.244
- relative viability ([6]; first compound 0.005 µM): 0.28
- relative viability ([6]; first compound 0.05 µM): 0.313
- relative viability ([6]; first compound 0.1581 µM): 0.204
- relative viability ([6]; first compound 0.5 µM): 0.242
- relative viability ([7]; first compound 0.005 µM): 0.236
- relative viability ([7]; first compound 0.01581 µM): 0.197
- relative viability ([7]; first compound 0.05 µM): 0.172
- relative viability ([7]; first compound 0.1581 µM): 0.198
- relative viability ([7]; first compound 0.5 µM): 0.228
- relative viability ([8]; first compound 0.005 µM): 0.186
- relative viability ([8]; first compound 0.01581 µM): 0.147
- relative viability ([8]; first compound 0.05 µM): 0.173
- relative viability ([8]; first compound 0.1581 µM): 0.176
- relative viability ([8]; first compound 0.5 µM): 0.103
- relative viability ([9]; first compound 0.005 µM): 0.455
- relative viability ([9]; first compound 0.01581 µM): 0.544
- relative viability ([9]; first compound 0.05 µM): 0.546
- relative viability ([9]; first compound 0.1581 µM): 0.507
- relative viability ([9]; first compound 0.5 µM): 0.343
- relative viability ([10]; first compound 0.005 µM): 0.586
- relative viability ([10]; first compound 0.01581 µM): 0.686
- relative viability ([10]; first compound 0.05 µM): 0.493
- relative viability ([10]; first compound 0.1581 µM): 0.62
- relative viability ([10]; first compound 0.5 µM): 0.66
- relative viability ([11]; first compound 0.005 µM): 0.817
- relative viability ([11]; first compound 0.01581 µM): 0.906
- relative viability ([11]; first compound 0.05 µM): 0.858
- relative viability ([11]; first compound 0.1581 µM): 0.823
- relative viability ([11]; first compound 0.5 µM): 0.749
- relative viability ([12]; first compound 0.005 µM): 0.158
- relative viability ([12]; first compound 0.01581 µM): 0.19
- relative viability ([12]; first compound 0.05 µM): 0.144
- relative viability ([12]; first compound 0.1581 µM): 0.164
- relative viability ([12]; first compound 0.5 µM): 0.141
- relative viability ([13]; first compound 0.005 µM): 0.42
- relative viability ([13]; first compound 0.01581 µM): 0.422
- relative viability ([13]; first compound 0.05 µM): 0.432
- relative viability ([13]; first compound 0.1581 µM): 0.414
- relative viability ([13]; first compound 0.5 µM): 0.418
- relative viability ([14]; first compound 0.005 µM): 0.596
- relative viability ([14]; first compound 0.01581 µM): 0.666
- relative viability ([14]; first compound 0.05 µM): 0.597
- relative viability ([14]; first compound 0.1581 µM): 0.522
- relative viability ([14]; first compound 0.5 µM): 0.595
- relative viability ([15]; first compound 0.005 µM): 0.1
- relative viability ([15]; first compound 0.01581 µM): 0.0998
- relative viability ([15]; first compound 0.05 µM): 0.105
- relative viability ([15]; first compound 0.1581 µM): 0.122
- relative viability ([15]; first compound 0.5 µM): 0.109
- relative viability ([16]; first compound 0.005 µM): 0.804
- relative viability ([16]; first compound 0.01581 µM): 0.734
- relative viability ([16]; first compound 0.05 µM): 0.811
- relative viability ([16]; first compound 0.1581 µM): 0.772
- relative viability ([16]; first compound 0.5 µM): 0.752
- relative viability ([17]; first compound 0.005 µM): 0.549
- relative viability ([17]; first compound 0.01581 µM): 0.589
- relative viability ([17]; first compound 0.05 µM): 0.456
- relative viability ([17]; first compound 0.1581 µM): 0.585
- relative viability ([17]; first compound 0.5 µM): 0.518
- relative viability ([18]; first compound 0.005 µM): 0.295
- relative viability ([18]; first compound 0.01581 µM): 0.328
- relative viability ([18]; first compound 0.05 µM): 0.266
- relative viability ([18]; first compound 0.1581 µM): 0.266
- relative viability ([18]; first compound 0.5 µM): 0.292
- relative viability ([19]; first compound 0.005 µM): 0.505
- relative viability ([19]; first compound 0.01581 µM): 0.516
- relative viability ([19]; first compound 0.1581 µM): 0.614
- relative viability ([19]; first compound 0.5 µM): 0.668
- relative viability ([20]; first compound 0.005 µM): 0.711
- relative viability ([20]; first compound 0.01581 µM): 0.818
- relative viability ([20]; first compound 0.05 µM): 0.781
- relative viability ([20]; first compound 0.1581 µM): 0.765
- relative viability ([20]; first compound 0.5 µM): 0.718
- relative viability ([21]; first compound 0.005 µM): 0.537
- relative viability ([21]; first compound 0.01581 µM): 0.471
- relative viability ([21]; first compound 0.05 µM): 0.558
- relative viability ([21]; first compound 0.1581 µM): 0.543
- relative viability ([21]; first compound 0.5 µM): 0.548
- relative viability ([22]; first compound 0.005 µM): 0.264
- relative viability ([22]; first compound 0.01581 µM): 0.355
- relative viability ([22]; first compound 0.05 µM): 0.244
- relative viability ([22]; first compound 0.1581 µM): 0.337
- relative viability ([22]; first compound 0.5 µM): 0.37
- relative viability ([23]; first compound 0.005 µM): 0.0833
- relative viability ([23]; first compound 0.01581 µM): 0.113
- relative viability ([23]; first compound 0.1581 µM): 0.0955
- relative viability ([23]; first compound 0.5 µM): 0.0891
